# Where two headings read alike, the source gives them in different places.
# Tests used:
# [1] = In vitro metabolic stability in rat plasma; assay type: in vitro ADME; settings: rat, plasma, 37° C., 10 μM compound, read-out: Rat plasma T1/2
# Description: (§1) This example detects the metabolic stability of the compounds of the present disclosure in human (rat) plasma and intestinal S9 in vitro. In a human (rat) plasma reaction system, 990 μl of human (rat) plasma was taken and incubated at 37° C. for 5 minutes, and 10 μl of the compound mother liquor was used to initiate the reaction. In the human (rat) intestinal S9 stability experiment, in the order shown in Table 2 below, the samples were added and incubated in a 37° C. water bath to initiate the reaction, each sample performed in triplicates. Respectively, at 1 minute, 2 minutes, 5 minutes, 15 minutes, 30 minutes after the reaction began, 100 μL of each was taken and added to a centrifuge tube containing 400 μL of 0° C. precooled internal standard working solution. The reaction was terminated, vortexed and mixed for 1 minute, centrifuged at 10000×g for 10 minutes in a 4° C. precooled high-speed centrifuge, and the supernatant was detected with HPLC. The test results were used to calculate metabolic half-life using WinNonlin (version 6.2 Pharsight, Mountain View, Calif.) with a non-compartmental model.
# (§2) Compound stock solution concentration: 1 mM
# (§3) Reaction matrix: human (rat) plasma, intestinal S9 purchased from Research Institute for Liver Diseases (Shanghai) Co., Ltd.
# [2] = In vitro metabolic stability in human intestine S9; assay type: in vitro ADME; settings: human, intestinal S9; 37° C., 10 μM compound, 1 mg/mL S9, NADPH regeneration system; read-out: Human intestine S9 T1/2
# Description: as §1, §2, §3
# [3] = In vitro metabolic stability in rat intestine S9; assay type: in vitro ADME; settings: rat, intestinal S9, pH 7.4; 37° C., 10 μM compound, 1 mg/mL S9, NADPH regeneration system; read-out: Rat intestine S9 T1/2
# Description: as §1, §2, §3
# [4] = Solid stability test (stability chamber, HPLC total impurity); assay type: physicochemical
# [5] = Determination of solubility in deionized water (HPLC, external standard); settings: 25 °C, water, thermodynamic from solid
# [6] = test system: Candida albicans ATCC10231; test: Systemic fungal infection in mice, intragastric administration; assay type: in vivo, ICR mice; settings: Candida albicans, ATCC10231, po
# Description: (§4) ICR mice, weighing 18-22 g, male, provided by Hubei Experimental Animal Center.
# Prior to the experiment, a small amount of Candida albicans was picked from an SDA medium kept at 4° C. with an inoculation loop and inoculated into 1 ml YPD culture medium, cultured at 30° C. with 200 rpm shaking and activated for 16 hours, so that the fungus was in the late stage of exponential growth. Counted with a hemocytometer and the fungal solution concentration was adjusted to 1×10^3 to 5×10^3 CFU/ml with RPMI1640 medium. Monoclonal Candida albicans on SDA plate was picked up, inoculated into 1 ml YPD (Yeast Extract Peptone Dextrose Medium, the same below) culture medium, cultured at 35° C., 200 rpm for 16 hours until late exponential growth phase. Candida albicans was inoculated into fresh medium for culturing for 6 hours at 1%, centrifuged at 1000×g for 5 minutes, washed with physiological saline three times until the supernatant was colorless, counted with a hemocytometer, and the cell concentration was adjusted to 5×10^6 cells/ml. A tail vein injection of 0.1 ml/10 g caused a systemic fungal infection in mice. […] A total of 7 days of observations were performed. All dead mice were burned with ethanol.
# [7] = In vitro metabolic stability in human plasma; assay type: in vitro ADME; settings: human, plasma, 37° C., 10 μM compound, read-out: Human plasma T1/2
# Description: as §1, §2, §3
# [8] = test system: Candida albicans ATCC10231; test: Systemic fungal infection in mice, intravenous administration; assay type: in vivo, ICR mice
# Description: as §4
# Prior to the experiment, a small amount of Candida albicans was picked from an SDA (sacharomyces agar, the same below) medium kept at 4° C. with an inoculation loop and inoculated into 1 ml YPD (Yeast Extract Peptone Dextrose Medium) culture medium, cultured at 30° C. with 200 rpm shaking and activated for 16 hours, so that the fungus was in the late stage of exponential growth. Counted with a hemocytometer and the fungal solution concentration was adjusted to 1×10^3-5×10^3 CFU/ml with RPMI1640 medium (Roswell Park Memorial Institute 1640, the same below). Monoclonal Candida albicans on SDA plate was picked up, inoculated into 1 ml YPD (Yeast Extract Peptone Dextrose Medium, the same below) culture medium, cultured at 35° C., 200 rpm for 16 hours until late exponential growth phase. Candida albicans was inoculated into fresh medium for culturing for 6 hours at 1%, centrifuged at 1000×g for 5 minutes, washed with physiological saline three times until the supernatant was colorless, counted with a hemocytometer, and the cell concentration was adjusted to 5×10^6 cells/ml. A tail vein injection of 0.1 ml/10 g caused a systemic fungal infection in mice. […] A total of 7 days of observations were performed. All dead mice were burned with ethanol.
# [9] = test system: Aspergillus fumigatus AF293; test: Lung Aspergillus fumigatus infection in immunosuppressed mice, intravenous administration; settings: for responders at 20 mg/kg: Aspergillus fumigatus, AF293, in Mus musculus, iv; for lung fungal load: mouse lung tissue, seven days later, 20 mg/kg tail vein once daily for 5 days, mean ± SD
# Description: ICR male mice were injected intraperitoneally with cyclophosphamide 150 mg/kg and injected subcutaneously with dexamethasone 150 mg/kg for 10 consecutive days. At the same time, the blood was taken to measure the changes of peripheral white blood cells and neutrophils, and mice with neutrophils consistently lower than 100/μl were selected as successfully immunosuppressed mice. Immediately after the last injection, the mice were anesthetized with ethyl ether, and mice were transferred from the initial state of excitement to inhibition. After their bodies were relaxed, the mice were immediately taken. Left hand was used to grasp the mouse to make it stand upright, the middle finger pressed the mouth so that it could breath only with the nose, and the ring finger gently pressed the abdomen to move the diaphragm muscle upward. 30 μl of conidia suspension (Aspergillus fumigatus AF293, 3×10^6 conidia) was sent to the nostrils of the anesthetized mice by a micropipette to allow spontaneous inhalation. After the mouse returned to normal breathing, it was returned to the cage. […] The death of the mice was observed and the survival time was recorded. Seven days later, the mice were sacrificed and their lung tissues were taken to observe the fungal loads of Aspergillus fumigatus in the lungs of the mice.
# [10] = test system: Aspergillus Fumigutus (AF) strains; test: Aspergillus fumigatus keratitis in rats, intravenous administration; settings: 10 mg/kg tail vein once daily for 5 days; mean ± SD of 10 rats
# [11] = 24 h, read-out: survival rate of mice, day 1, 20 mg/kg intragastric once daily for 5 days, day 1
# [12] = 48 h, read-out: survival rate of mice, day 2, 20 mg/kg intragastric once daily for 5 days, day 2
# [13] = 72 h, read-out: survival rate of mice, day 3, 20 mg/kg intragastric once daily for 5 days, day 3
# [14] = 96 h, read-out: survival rate of mice, day 4, 20 mg/kg intragastric once daily for 5 days, day 4
# [15] = 120 h, read-out: survival rate of mice, day 5, 20 mg/kg intragastric once daily for 5 days, day 5
# [16] = 144 h, read-out: survival rate of mice, day 6, 20 mg/kg intragastric once daily for 5 days, day 6
# [17] = 168 h, read-out: survival rate of mice, day 7, 20 mg/kg intragastric once daily for 5 days, day 7
# [18] = 24 h, read-out: survival rate of mice, day 1
# [19] = 48 h, read-out: survival rate of mice, day 2
# [20] = 72 h, read-out: survival rate of mice, day 3
# [21] = 96 h, read-out: survival rate of mice, day 4
# [22] = 120 h, read-out: survival rate of mice, day 5
# [23] = 144 h, read-out: survival rate of mice, day 6
# [24] = 168 h, read-out: survival rate of mice, day 7
# [25] = 24 h, read-out: survival rate of mice, day 1, 20 mg/kg tail vein once daily for 5 days, day 1
# [26] = 48 h, read-out: survival rate of mice, day 2, 20 mg/kg tail vein once daily for 5 days, day 2
# [27] = 72 h, read-out: survival rate of mice, day 3, 20 mg/kg tail vein once daily for 5 days, day 3
# [28] = 96 h, read-out: survival rate of mice, day 4, 20 mg/kg tail vein once daily for 5 days, day 4
# [29] = 120 h, read-out: survival rate of mice, day 5, 20 mg/kg tail vein once daily for 5 days, day 5
# [30] = 144 h, read-out: survival rate of mice, day 6, 20 mg/kg tail vein once daily for 5 days, day 6
# [31] = 168 h, read-out: survival rate of mice, day 7, 20 mg/kg tail vein once daily for 5 days, day 7
Structure (SMILES),half-life at 10 µM [1],half-life at 10 µM [2],half-life at 10 µM [3],Total impurity increment in 30 days [4],solubility at 30 min [5],"responders at 20 mg/kg [6, 11]","responders at 20 mg/kg [6, 12]","responders at 20 mg/kg [6, 13]","responders at 20 mg/kg [6, 14]","responders at 20 mg/kg [6, 15]","responders at 20 mg/kg [6, 16]","responders at 20 mg/kg [6, 17]",half-life at 10 µM [7],"responders at 20 mg/kg [9, 25]","responders at 20 mg/kg [9, 26]","responders at 20 mg/kg [9, 27]","responders at 20 mg/kg [9, 28]","responders at 20 mg/kg [9, 29]","responders at 20 mg/kg [9, 30]","responders at 20 mg/kg [9, 31]",other results
CC[C@@H]([C@H](C)O)n1ncn(-c2ccc(N3CCN(c4ccc(OC[C@@H]5CO[C@@](Cn6c[n+](C(C)OC(=O)N(C)c7ncccc7COC(=O)[C@@H](N)CC(N)=O)cn6)(c6ccc(F)cc6F)C5)cc4)CC3)cc2)c1=O (stereo partly drawn) [ST0023],0.55 ± 0.78 min,15 ± 3.78 min,16.7 ± 2.96 min,0.42%,> 50 mg/mL,100%,100%,90%,90%,90%,80%,80%,0.94 ± 0.15 min,–,–,–,–,–,–,–,"responders at 20 mg/kg [8, 18]: 100%; responders at 20 mg/kg [8, 19]: 100%; responders at 20 mg/kg [8, 20]: 100%; responders at 20 mg/kg [8, 21]: 100%; responders at 20 mg/kg [8, 22]: 100%; responders at 20 mg/kg [8, 23]: 90%; responders at 20 mg/kg [8, 24]: 90%"
CC[C@@H]([C@H](C)O)n1ncn(-c2ccc(N3CCN(c4ccc(OC[C@@H]5CO[C@@](Cn6c[n+](C(C)OC(=O)N(C)c7ncccc7COC(=O)[C@@H](N)CCCCN)cn6)(c6ccc(F)cc6F)C5)cc4)CC3)cc2)c1=O (stereo partly drawn) [ST0024],2.51 ± 0.69 min,12.2 ± 5.9 min,15.6 ± 5.96 min,0.62%,> 50 mg/mL,100%,90%,90%,80%,80%,70%,70%,1.57 ± 0.34 min,–,–,–,–,–,–,–,–
CC[C@@H]([C@H](C)O)n1ncn(-c2ccc(N3CCN(c4ccc(OC[C@@H]5CO[C@@](Cn6c[n+](C(C)OC(=O)N(C)c7ncccc7COC(=O)CCC(=O)O)cn6)(c6ccc(F)cc6F)C5)cc4)CC3)cc2)c1=O (stereo partly drawn) [ST0005],–,–,–,–,> 50 mg/mL,–,–,–,–,–,–,–,–,100%,90%,80%,80%,70%,60%,50%,lung fungal load [9]: 3.40 ± 1.26 10^4 CFU/ml; Amount of active fungi in cornea at day 7 [10]: 5.90 ± 1.06 10^3 CFU/ml
CCC([C@H](C)OC(=O)C(O)C(O)COP(=O)(O)O)n1ncn(-c2ccc(N3CCN(c4ccc(OC[C@@H]5CO[C@@](Cn6cncn6)(c6ccc(F)cc6F)C5)cc4)CC3)cc2)c1=O (stereo partly drawn) [ST0001],–,–,–,–,47.7 mg/mL,–,–,–,–,–,–,–,–,100%,100%,90%,90%,80%,70%,70%,lung fungal load [9]: 2.28 ± 0.77 10^4 CFU/ml; Amount of active fungi in cornea at day 7 [10]: 3.73 ± 0.63 10^3 CFU/ml
CC[C@@H]([C@H](C)O)n1ncn(-c2ccc(N3CCN(c4ccc(OC[C@@H]5CO[C@@](Cn6c[n+](C(C)OC(=O)N(C)c7ncccc7COC(=O)[C@@H](N)CO)cn6)(c6ccc(F)cc6F)C5)cc4)CC3)cc2)c1=O (stereo partly drawn) [ST0025],1.22 ± 0.85 min,25 ± 4.76 min,22.5 ± 5.96 min,0.55%,> 50 mg/mL,100%,100%,90%,90%,80%,80%,80%,0.92 ± 0.03 min,–,–,–,–,–,–,–,"responders at 20 mg/kg [8, 18]: 100%; responders at 20 mg/kg [8, 19]: 100%; responders at 20 mg/kg [8, 20]: 100%; responders at 20 mg/kg [8, 21]: 100%; responders at 20 mg/kg [8, 22]: 100%; responders at 20 mg/kg [8, 23]: 90%; responders at 20 mg/kg [8, 24]: 90%"
CC[C@@H]([C@H](C)O)n1ncn(-c2ccc(N3CCN(c4ccc(OC[C@@H]5CO[C@@](Cn6c[n+](C(C)OC(=O)N(C)c7ncccc7COC(=O)C[C@H](N)C(=O)O)cn6)(c6ccc(F)cc6F)C5)cc4)CC3)cc2)c1=O (stereo partly drawn) [ST0004],–,–,–,–,> 50 mg/mL,–,–,–,–,–,–,–,–,100%,90%,80%,80%,70%,60%,50%,lung fungal load [9]: 3.51 ± 1.38 10^4 CFU/ml; Amount of active fungi in cornea at day 7 [10]: 5.58 ± 1.12 10^3 CFU/ml
CC[C@@H]([C@H](C)O)n1ncn(-c2ccc(N3CCN(c4ccc(OC[C@@H]5CO[C@@](Cn6c[n+](C(C)OC(=O)N(C)c7ncccc7COC(=O)[C@@H](N)[C@@H](C)O)cn6)(c6ccc(F)cc6F)C5)cc4)CC3)cc2)c1=O (stereo partly drawn) [ST0026],2.69 ± 1.21 min,16.4 ± 7.54 min,19 ± 5.96 min,0.46%,> 50 mg/mL,100%,100%,90%,80%,70%,70%,70%,1.03 ± 0.09 min,–,–,–,–,–,–,–,–
